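Test compounds were applied to cells in 96-well plates for 48 hours at 5 doses. Definition used: TGI = concentration required for complete inhibition of growth.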

The subject of the first assay is ACHN renal. The assay is described as follows: NCI tumour cell line growth inhibition, 48 h.
The compound `CCOC(=O)c1cnc2[nH]ccn2c1=O` showed a TGI of more than 10 µM.

The compound `O=C1C(Br)=Cc2c(Cl)sc(Cl)c21` registered a TGI of 9.83 µM.

`O=[N+]([O-])C(=C(Sc1ccccc1)Sc1ccccc1)C(Cl)=C(Cl)Cl` came in with a TGI of 0.895 µM.

Compound `NCCCC(N)C(=O)O` (centres undefined) yielded a TGI of more than 100 µM.

With `CCOC(=O)C1C(=O)CC(O)(c2ccccc2)C(C(=O)OCC)C1c1ccc(OC)cc1` (centres undefined), the TGI is more than 100 µM.

In turn, `COC(=O)CCCC(=O)C(=Nc1c(Cl)cccc1Cl)NNc1ccc(Cl)cc1` gave a TGI of more than 100 µM.

The test system of another assay is UO-31 renal. The assay can be described thus: NCI tumour cell line growth inhibition, 48 h.
`CC(C)(CO)N1C(=O)c2ccccc2C1(O)c1ccc(Cl)cc1` (centres undefined) came in with a TGI of more than 100 µM.

Turning to `COC(=O)C1CC(C=[N+](C)C)=C(SC)N1` (centres undefined), the TGI is more than 100 µM.

`CN1CN(c2ccccc2)C2(CCN(CCCC3(c4cccs4)OCCO3)CC2)C1=O` gave a TGI of more than 100 µM.

`Cc1cc(O)cc(O)c1N=Nc1ccc([N+](=O)[O-])cc1` gave a TGI of 83.8 µM.

Take `O=c1c2cc(I)ccc2[nH]c(=S)n1Cc1ccccc1`: the TGI was determined as 1.83 µM.

`Cc1nc2ccc([N+](=O)[O-])cc2c(=O)n1C(=S)Nc1cccc(Cl)c1` displayed a TGI of 21.5 µM.

Regarding `Cc1cccc(C[C@@]2(SCc3ccccc3)C(C)(C)[C@@H]3CC[C@@]2(C)C3)n1`, the TGI was determined as 37.2 µM.

As to `N#Cc1c(OCCF)c2ccccc2n2c1nc1ccccc12`, the TGI is more than 100 µM.

Consider `O=C1/C(=C/c2ccc([N+](=O)[O-])cc2)CNC/C1=C\c1ccc([N+](=O)[O-])cc1`, for which the TGI worked out at 19.6 µM.

Take `C/C(=N/NC(=S)Nc1cccc(C)c1)c1ccccn1`: the TGI came to 6 µM.

With `O=C(O)c1ccc(NS(=O)(=O)Cc2ccccc2)cc1`, the TGI was more than 100 µM.

`O=C1/C(=C/c2ccc(Br)s2)NC(=S)N1CN1CCOCC1` gave a TGI of more than 100 µM.

`CC(=O)/C(=C/n1c(=S)sc2ccccc21)C(=O)Nc1ccccc1C`: the TGI was more than 100 µM.

On to `Cc1ccc(C2=Nc3c(c(C)nn3-c3ccccc3)N=C(C(=O)O)C2)cc1`, for which the TGI was more than 10 µM.

Compound `Cc1ccc(C(=O)Nc2ccc(CP(=O)(O)O)cc2)cc1NC(=O)c1cccc(NC(=O)Nc2cccc(C(=O)Nc3cc(C(=O)Nc4ccc(CP(=O)(O)O)cc4)ccc3C)c2)c1` returned a TGI of more than 100 µM.

`CCOC(=O)c1cnc2[nH]ccn2c1=O` came in with a TGI of more than 10 µM.

The compound `O=C1C(Br)=Cc2c(Cl)sc(Cl)c21` showed a TGI of 9.14 µM.

For the compound `O=[N+]([O-])C(=C(Sc1ccccc1)Sc1ccccc1)C(Cl)=C(Cl)Cl`, the TGI is 0.402 µM.

For `NCCCC(N)C(=O)O` (centres undefined), the TGI was more than 100 µM.

Compound `CCOC(=O)C1C(=O)CC(O)(c2ccccc2)C(C(=O)OCC)C1c1ccc(OC)cc1` (centres undefined) registered a TGI of more than 100 µM.

Compound `COC(=O)CCCC(=O)C(=Nc1c(Cl)cccc1Cl)NNc1ccc(Cl)cc1` had a TGI of more than 100 µM.

In the next assay the test system is NCI-H23 lung. The assay can be described thus: NCI tumour cell line growth inhibition, 48 h.
As to `CC(C)(CO)N1C(=O)c2ccccc2C1(O)c1ccc(Cl)cc1` (centres undefined), the TGI was more than 100 µM.

`COC(=O)C1CC(C=[N+](C)C)=C(SC)N1` (centres undefined) returned a TGI of more than 100 µM.

For `CN1CN(c2ccccc2)C2(CCN(CCCC3(c4cccs4)OCCO3)CC2)C1=O`, the TGI was more than 100 µM.

As for `Cc1cc(O)cc(O)c1N=Nc1ccc([N+](=O)[O-])cc1`, the TGI amounted to 52 µM.

Compound `O=c1c2cc(I)ccc2[nH]c(=S)n1Cc1ccccc1` came in with a TGI of more than 100 µM.

As for `Cc1nc2ccc([N+](=O)[O-])cc2c(=O)n1C(=S)Nc1cccc(Cl)c1`, the TGI was 38.1 µM.

In turn, `Cc1cccc(C[C@@]2(SCc3ccccc3)C(C)(C)[C@@H]3CC[C@@]2(C)C3)n1` gave a TGI of 31.4 µM.

The compound `N#Cc1c(OCCF)c2ccccc2n2c1nc1ccccc12` showed a TGI of more than 100 µM.

In the case of `O=C1/C(=C/c2ccc([N+](=O)[O-])cc2)CNC/C1=C\c1ccc([N+](=O)[O-])cc1`, the TGI came out at 9.77 µM.

For `C/C(=N/NC(=S)Nc1cccc(C)c1)c1ccccn1`, the TGI was 9.92 µM.

In turn, `O=C(O)c1ccc(NS(=O)(=O)Cc2ccccc2)cc1` registered a TGI of more than 100 µM.

The compound `O=C1/C(=C/c2ccc(Br)s2)NC(=S)N1CN1CCOCC1` showed a TGI of more than 100 µM.

`CC(=O)/C(=C/n1c(=S)sc2ccccc21)C(=O)Nc1ccccc1C` returned a TGI of more than 100 µM.

Take `Cc1ccc(C2=Nc3c(c(C)nn3-c3ccccc3)N=C(C(=O)O)C2)cc1`: the TGI was more than 10 µM.

The compound `Cc1ccc(C(=O)Nc2ccc(CP(=O)(O)O)cc2)cc1NC(=O)c1cccc(NC(=O)Nc2cccc(C(=O)Nc3cc(C(=O)Nc4ccc(CP(=O)(O)O)cc4)ccc3C)c2)c1` registered a TGI of more than 100 µM.

On to `CCOC(=O)c1cnc2[nH]ccn2c1=O`, for which the TGI is more than 10 µM.

For `O=C1C(Br)=Cc2c(Cl)sc(Cl)c21`, the TGI came to 30.6 µM.

`O=[N+]([O-])C(=C(Sc1ccccc1)Sc1ccccc1)C(Cl)=C(Cl)Cl` came in with a TGI of 2.91 µM.

Turning to `NCCCC(N)C(=O)O` (centres undefined), the TGI was more than 100 µM.

The compound `CCOC(=O)C1C(=O)CC(O)(c2ccccc2)C(C(=O)OCC)C1c1ccc(OC)cc1` (centres undefined) returned a TGI of more than 100 µM.

For `COC(=O)CCCC(=O)C(=Nc1c(Cl)cccc1Cl)NNc1ccc(Cl)cc1`, the TGI is more than 100 µM.

The next assay has as its system NCI/ADR-RES ovarian. The assay is described as follows: NCI tumour cell line growth inhibition, 48 h.
Turning to `CC(C)(CO)N1C(=O)c2ccccc2C1(O)c1ccc(Cl)cc1` (centres undefined), the TGI is more than 100 µM.

`COC(=O)C1CC(C=[N+](C)C)=C(SC)N1` (centres undefined) showed a TGI of more than 100 µM.

In turn, `CN1CN(c2ccccc2)C2(CCN(CCCC3(c4cccs4)OCCO3)CC2)C1=O` displayed a TGI of more than 100 µM.

With `Cc1cc(O)cc(O)c1N=Nc1ccc([N+](=O)[O-])cc1`, the TGI worked out at 52.9 µM.

`O=c1c2cc(I)ccc2[nH]c(=S)n1Cc1ccccc1` had a TGI of more than 100 µM.

With `Cc1nc2ccc([N+](=O)[O-])cc2c(=O)n1C(=S)Nc1cccc(Cl)c1`, the TGI amounted to 89.7 µM.

Regarding `Cc1cccc(C[C@@]2(SCc3ccccc3)C(C)(C)[C@@H]3CC[C@@]2(C)C3)n1`, the TGI was found to be 30.2 µM.

The compound `N#Cc1c(OCCF)c2ccccc2n2c1nc1ccccc12` gave a TGI of more than 100 µM.

The compound `O=C1/C(=C/c2ccc([N+](=O)[O-])cc2)CNC/C1=C\c1ccc([N+](=O)[O-])cc1` came in with a TGI of 26.3 µM.

In the case of `C/C(=N/NC(=S)Nc1cccc(C)c1)c1ccccn1`, the TGI stood at 0.444 µM.

Consider `O=C(O)c1ccc(NS(=O)(=O)Cc2ccccc2)cc1`, for which the TGI is more than 100 µM.

Compound `O=C1/C(=C/c2ccc(Br)s2)NC(=S)N1CN1CCOCC1` showed a TGI of more than 100 µM.

`CC(=O)/C(=C/n1c(=S)sc2ccccc21)C(=O)Nc1ccccc1C` had a TGI of more than 100 µM.

In turn, `Cc1ccc(C2=Nc3c(c(C)nn3-c3ccccc3)N=C(C(=O)O)C2)cc1` registered a TGI of more than 10 µM.

In turn, `Cc1ccc(C(=O)Nc2ccc(CP(=O)(O)O)cc2)cc1NC(=O)c1cccc(NC(=O)Nc2cccc(C(=O)Nc3cc(C(=O)Nc4ccc(CP(=O)(O)O)cc4)ccc3C)c2)c1` gave a TGI of more than 100 µM.

For `CCOC(=O)c1cnc2[nH]ccn2c1=O`, the TGI is more than 10 µM.

Compound `O=C1C(Br)=Cc2c(Cl)sc(Cl)c21` gave a TGI of more than 100 µM.

Regarding `O=[N+]([O-])C(=C(Sc1ccccc1)Sc1ccccc1)C(Cl)=C(Cl)Cl`, the TGI was 1.9 µM.

With `NCCCC(N)C(=O)O` (centres undefined), the TGI is more than 100 µM.

Compound `CCOC(=O)C1C(=O)CC(O)(c2ccccc2)C(C(=O)OCC)C1c1ccc(OC)cc1` (centres undefined) registered a TGI of more than 55.9 µM.

`COC(=O)CCCC(=O)C(=Nc1c(Cl)cccc1Cl)NNc1ccc(Cl)cc1`: the TGI is more than 100 µM.

These data come from PubChem BioAssay (NCI).
